From patent US12492178B2, “Stable polymorph of R-MDMA HCl” (EMPATHBIO, INC., priority 2021, dated 2025)
Like-named read-outs stand apart in the source and are kept apart here.

Columns and labels:
[1] = background statement; cited from earlier work
[2] = Dynamic Vapor Sorption (DVS); assay type: physicochemical; conditions: for Post-DVS crystalline form: XRPD of post-DVS solids
Procedure: Dynamic vapor sorption data were collected on a Surface Measurement System DVS Intrinsic instrument.
Samples were not dried prior to analysis. Sorption and desorption data were collected over a range from 5% to 95% RH at 10% RH increments under a nitrogen purge. The equilibrium criterion used for analysis was less than 0.0100% weight change in 5 minutes with a maximum equilibration time of 3 hours. Data were not corrected for the initial moisture content of the samples.

[3] = Stable form and polymorph screen, twenty-nine experiments (XRPD); assay type: physicochemical; conditions: all samples of Example 3, XRPD
[4] = Dry milling, effect on crystallinity (XRPD); assay type: physicochemical; conditions: 30 Hz for 3×10 minutes
Procedure: A dry milling experiment was conducted to investigate the effect on crystallinity.

[5] = Particle size distribution (PSD); assay type: physicochemical
[6] = Relative humidity stressing (state by XRPD); conditions: for Observations after RH stressing / State after RH stressing: 6 d
[7] = Stable form screen from slurries in organic solvent (state by XRPD); assay type: physicochemical
[8] = Stable form screen from slurries in aqueous/organic mixtures at room temperature for 7 days (state by XRPD); assay type: physicochemical; conditions: RT
[9] = Approximate solubility in various solvents at ambient temperature (aliquot addition, visual observation); assay type: physicochemical; conditions: for solubility: ambient temperature
Procedure: Aliquots of various solvents were added to measured amounts of a Form I with agitation (typically sonication) at ambient temperature until complete dissolution was achieved, as judged by visual observation. If dissolution occurred after the addition of the first aliquot, values are reported as “>”.

[10] = Heating by DSC from RT to 200° C. and cooling to RT, XRPD of treated sample; assay type: physicochemical; conditions: cooled down to RT
Procedure: An (R)-MDMA HCl Form 1 sample was heated by DSC from RT to 200° C. and cooled down to RT.

[11] = pH of aqueous solution using pH test strips; assay type: physicochemical; conditions: 10 mg/mL aqueous solution

CNC(C)Cc1ccc2c(c1)OCO2.Cl (racemic) [hydrochloride salt of racemic MDMA]
Solubility in water (in words) [1]: soluble in water

CNC(C)Cc1ccc2c(c1)OCO2 (stereo not drawn) [MDMA, 3,4-Methylenedioxymethamphetamine]
Solubility in water (in words) [1]: insoluble in water

CN[C@H](C)Cc1ccc2c(c1)OCO2.Cl [R-MDMA HCl Form I, (R)-3,4-methylenedioxymethamphetamine HCl]
Water sorbed, equivalent moles ([2]; 5-85% RH): 0.04 moles water | DVS wt. gain ([2]; 5-85% RH, sorption, HCl): 0.28% wt. gain 5-85% RH | DVS wt. gain ([2]; 5-85% RH, sorption, listed as (R)-MDMA HCl Form I, HCl): 0.28% | DVS weight gain ([2]; 5-95% RH, sorption, listed as (R)-3,4-methylenedioxymethamphetamine HCl Form I, HCl): 5.28±0.02% | DVS wt. loss ([2]; 85-5% RH, desorption): 0.51% wt. loss 85-5% RH | Water sorbed, equivalent moles ([2]; 85-95% RH, per mole of salt): 0.7 mol water | DVS wt. gain ([2]; 85-95% RH, sorption): 5.00% | DVS weight loss ([2]; 95-5% RH, desorption, listed as (R)-3,4-methylenedioxymethamphetamine HCl Form I, HCl): 5.35±0.02% | DVS wt. loss ([2]; 95-85% RH, desorption): 4.84% wt. loss 95-85% RH | Post-DVS crystalline form ([2]; HCl): Post-DVS crystalline form was found to be Form I | Post-DVS crystalline form ([2]; listed as (R)-MDMA HCl Form I, HCl): consistent with Form I | Hygroscopicity (in words) ([2]; between 5% and 85% RH): low hygroscopicity | Hygroscopicity (in words) ([2]; between 85% and 95% RH): Significant hygroscopicity | Hysteresis on desorption ([2]; desorption 95-5% RH): virtually no hysteresis | Form found in stable form and polymorph screen [3]: Form I was formed in each case | State after dry milling [4]: Form I with no apparent decrease in crystallinity | PSD d10 [5]: 5.10 μm | PSD d50 [5]: 19.2 μm | PSD d90 [5]: 48.8 μm | Observations after RH stressing ([6]; 75% RH): free-flowing solids, B/E | State after RH stressing ([6]; 75% RH): Form I | Observations after RH stressing ([6]; 90% RH): mostly free-flowing solids, some clumps, | State after RH stressing ([6]; 90% RH): Form I | Physical stability upon stressing ([6]; 97% RH for 6 days): exhibits physical stability | Observations after RH stressing ([6]; 97% RH): off-white fines, B/E, some deliquesence | State after RH stressing ([6]; 97% RH): Form I, PO | State after slurry ([7]; 1-BuOH, RT, 14 d): Form I | State after slurry ([7]; 90:10 EtOAc/MeOH, RT, 14 d): Form I | State after slurry ([7]; ACN, RT, 14 d): Form I | State after slurry ([7]; DCM, RT, 14 d): Form I | State after slurry ([7]; EtOH, RT, 14 d): Form I | State after slurry ([7]; IPA, RT, 14 d): Form I | State after slurry ([7]; IPA, ~5° C., 14 d): Form I | State after slurry ([7]; MeOH/MTBE (10:90), RT, 5 d): Form I | State after slurry ([7]; t-BuOH, ~75° C., 7 d): Form I | State after slurry ([8]; THF/water 98:2 (aw 0.38)): Form I | State after slurry ([8]; acetone/water 98:2 (aw 0.35)): Form I | State after slurry ([8]; p-dioxane/water 95:5 (aw 0.40)): Form I | Approximate solubility at RT (in words) ([9]; ACN, DCM, and most alcohols, listed as R-MDMA HCl Form 1, HCl): good solubility in ACN, DCM, and most alcohols | solubility ([9]; Water, listed as R-MDMA HCl Form 1, HCl): >110000 µg/mL | Approximate solubility at RT (in words) ([9]; aqueous environments, HCl): The compound exhibited high solubility in aqueous environments, | Approximate solubility at RT (in words) ([9]; aqueous environments, listed as R-MDMA HCl Form 1, HCl): high solubility in aqueous environments | Approximate solubility at RT (in words) ([9]; most organic solvents tested, HCl): Lower solubility was observed in most organic solvents tested. | Approximate solubility at RT (in words) ([9]; most organic solvents tested, listed as R-MDMA HCl Form 1, HCl): Lower solubility was observed in most organic solvents tested | solubility ([9]; organic solvent or mixture, thermodynamic from solid, 1-BuOH, read-out: Solubility): 3000 µg/mL | solubility ([9]; organic solvent or mixture, thermodynamic from solid, 90:10 Acetone/Water, read-out: Solubility): > 76000 µg/mL | solubility ([9]; organic solvent or mixture, thermodynamic from solid, Acetone, read-out: Solubility): < 1000 µg/mL | solubility ([9]; organic solvent or mixture, thermodynamic from solid, CAN, read-out: Solubility): 7000 µg/mL | solubility ([9]; organic solvent or mixture, thermodynamic from solid, DCM, read-out: Solubility): 16000 µg/mL | solubility ([9]; organic solvent or mixture, thermodynamic from solid, EtOAc, read-out: Solubility): < 1000 µg/mL | solubility ([9]; organic solvent or mixture, thermodynamic from solid, EtOH, read-out: Solubility): 25000 µg/mL | solubility ([9]; organic solvent or mixture, thermodynamic from solid, Heptane, read-out: Solubility): < 1000 µg/mL | solubility ([9]; organic solvent or mixture, thermodynamic from solid, IPA, read-out: Solubility): 6000 µg/mL | solubility ([9]; organic solvent or mixture, thermodynamic from solid, MTBE, read-out: Solubility): < 1000 µg/mL | solubility ([9]; organic solvent or mixture, thermodynamic from solid, MeOH, read-out: Solubility): > 114000 µg/mL | solubility ([9]; organic solvent or mixture, thermodynamic from solid, MeOH/MTBE (5:95), read-out: Solubility): < 1000 µg/mL | solubility ([9]; organic solvent or mixture, thermodynamic from solid, MeOH/MTBE (10:90), read-out: Solubility): < 2000 µg/mL | solubility ([9]; organic solvent or mixture, thermodynamic from solid, MeOH/MTBE (20:80), read-out: Solubility): 3000 µg/mL | solubility ([9]; organic solvent or mixture, thermodynamic from solid, THF, read-out: Solubility): < 1000 µg/mL | solubility ([9]; organic solvent or mixture, thermodynamic from solid, p-dioxane, read-out: Solubility): < 1000 µg/mL | solubility ([9]; organic solvent or mixture, thermodynamic from solid, t-BuOH, read-out: Solubility): 1000 µg/mL | solubility ([9]; thermodynamic from solid, Water, read-out: Solubility): > 110000 µg/mL | Crystalline state after heating [10]: Form I crystalline state | pH of aqueous solution [11]: pH of a 10 mg/mL aqueous solution is approximately 6 using pH test
